In PubChem BioAssay AID1259407 (Chemical Carcinogenesis Research Information System (CCRIS), 2018):
Active and inactive are the calls of the source. No rule for the calls is given here.

Tested on: CCRIS mutagenicity, Ames/micronucleus/aberration tests
Experiment: CCRIS mutagenicity studies
[1] = Test System: AMES SALMONELLA TYPHIMURIUM, Strain/Indicator: TA98, Metabolic Activation: HAMSTER, LIVER, S-9, AROCLOR 1254 (30%), Method: PREINCUBATION
[2] = Test System: AMES SALMONELLA TYPHIMURIUM, Strain/Indicator: TA98, Metabolic Activation: NONE, Method: PREINCUBATION
[3] = Test System: AMES SALMONELLA TYPHIMURIUM, Strain/Indicator: TA98, Metabolic Activation: RAT, LIVER, S-9, AROCLOR 1254 (30%), Method: PREINCUBATION
[4] = Test System: AMES SALMONELLA TYPHIMURIUM, Strain/Indicator: TA100, Metabolic Activation: HAMSTER, LIVER, S-9, AROCLOR 1254 (30%), Method: PREINCUBATION
[5] = Test System: AMES SALMONELLA TYPHIMURIUM, Strain/Indicator: TA100, Metabolic Activation: NONE, Method: PREINCUBATION
[6] = Test System: AMES SALMONELLA TYPHIMURIUM, Strain/Indicator: TA100, Metabolic Activation: RAT, LIVER, S-9, AROCLOR 1254 (30%), Method: PREINCUBATION
[7] = Test System: AMES SALMONELLA TYPHIMURIUM, Strain/Indicator: TA1535, Metabolic Activation: NONE, Method: PREINCUBATION
[8] = Test System: AMES SALMONELLA TYPHIMURIUM, Strain/Indicator: TA1537, Metabolic Activation: NONE, Method: PREINCUBATION
[9] = Test System: AMES SALMONELLA TYPHIMURIUM, Strain/Indicator: TA97, Metabolic Activation: NONE, Method: STANDARD PLATE
[10] = Test System: AMES SALMONELLA TYPHIMURIUM, Strain/Indicator: TA97, Metabolic Activation: RAT, LIVER, S-9, AROCLOR 1254, Method: STANDARD PLATE
[11] = Test System: AMES SALMONELLA TYPHIMURIUM, Strain/Indicator: TA98, Metabolic Activation: NONE, Method: STANDARD PLATE
[12] = Test System: AMES SALMONELLA TYPHIMURIUM, Strain/Indicator: TA98, Metabolic Activation: RAT, LIVER, S-9, AROCLOR 1254, Method: STANDARD PLATE
[13] = Test System: AMES SALMONELLA TYPHIMURIUM, Strain/Indicator: TA100, Metabolic Activation: NONE, Method: STANDARD PLATE
[14] = Test System: AMES SALMONELLA TYPHIMURIUM, Strain/Indicator: TA100, Metabolic Activation: RAT, LIVER, S-9, AROCLOR 1254, Method: STANDARD PLATE

O=[N+]([O-])c1cccc2c([N+](=O)[O-])cccc12
mutagenic call (End Point: IN VITRO CHROMOSOMAL ABERRATIONS, Test System: CHL CELLS, Metabolic Activation: RAT, LIVER, S-9, SODIUM PHENOBARBITAL AND 5,6-BENZOFLAVONE): active; positive (structural changes)
mutagenic call [1]: active; positive
mutagenic call [2]: active; positive
mutagenic call (Test System: AMES SALMONELLA TYPHIMURIUM, Strain/Indicator: TA98, Metabolic Activation: RAT LIVER S-9, PHENOBARBITAL AND BETA-NAPHTHOFLAVONE, Method: PREINCUBATION): active; positive
mutagenic call [3]: active; positive
mutagenic call [4]: active; positive
mutagenic call [5]: active; positive
mutagenic call (Test System: AMES SALMONELLA TYPHIMURIUM, Strain/Indicator: TA100, Metabolic Activation: RAT LIVER S-9, PHENOBARBITAL AND BETA-NAPHTHOFLAVONE, Method: PREINCUBATION): active; positive
mutagenic call [6]: active; positive
mutagenic call [7]: inactive; negative
mutagenic call (Test System: AMES SALMONELLA TYPHIMURIUM, Strain/Indicator: TA1535, Metabolic Activation: RAT LIVER S-9, PHENOBARBITAL AND BETA-NAPHTHOFLAVONE, Method: PREINCUBATION): inactive; negative
mutagenic call [8]: active; positive
mutagenic call (Test System: AMES SALMONELLA TYPHIMURIUM, Strain/Indicator: TA1537, Metabolic Activation: RAT LIVER S-9, PHENOBARBITAL AND BETA-NAPHTHOFLAVONE, Method: PREINCUBATION): active; positive
mutagenic call (Test System: AMES SALMONELLA TYPHIMURIUM, Strain/Indicator: TA1538, Metabolic Activation: NONE, Method: PREINCUBATION): active; positive
mutagenic call (Test System: AMES SALMONELLA TYPHIMURIUM, Strain/Indicator: TA1538, Metabolic Activation: RAT LIVER S-9, PHENOBARBITAL AND BETA-NAPHTHOFLAVONE, Method: PREINCUBATION): active; positive
mutagenic call (Test System: E.COLI, Strain/Indicator: WP2UVRA, Metabolic Activation: NONE, Method: PREINCUBATION): inactive; negative
mutagenic call (Test System: E.COLI, Strain/Indicator: WP2UVRA, Metabolic Activation: RAT LIVER S-9, PHENOBARBITAL AND BETA-NAPHTHOFLAVONE, Method: PREINCUBATION): active; positive

[CH3][Hg+]
mutagenic call (Test System: AMES SALMONELLA TYPHIMURIUM, Strain/Indicator: TA97, Metabolic Activation: HAMSTER, LIVER, S-9, AROCLOR 1254 (10%), Method: PREINCUBATION): inactive; negative
mutagenic call (Test System: AMES SALMONELLA TYPHIMURIUM, Strain/Indicator: TA97, Metabolic Activation: HAMSTER, LIVER, S-9, AROCLOR 1254 (30%), Method: PREINCUBATION): inactive; negative
mutagenic call (Test System: AMES SALMONELLA TYPHIMURIUM, Strain/Indicator: TA97, Metabolic Activation: NONE, Method: PREINCUBATION): inactive; negative
mutagenic call (Test System: AMES SALMONELLA TYPHIMURIUM, Strain/Indicator: TA97, Metabolic Activation: RAT, LIVER, S-9, AROCLOR 1254 (10%), Method: PREINCUBATION): inactive; negative
mutagenic call (Test System: AMES SALMONELLA TYPHIMURIUM, Strain/Indicator: TA97, Metabolic Activation: RAT, LIVER, S-9, AROCLOR 1254 (30%), Method: PREINCUBATION): inactive; negative
mutagenic call (Test System: AMES SALMONELLA TYPHIMURIUM, Strain/Indicator: TA98, Metabolic Activation: HAMSTER, LIVER, S-9, AROCLOR 1254 (10%), Method: PREINCUBATION): inactive; negative
mutagenic call [1]: inactive; negative
mutagenic call [2]: inactive; negative
mutagenic call (Test System: AMES SALMONELLA TYPHIMURIUM, Strain/Indicator: TA98, Metabolic Activation: RAT, LIVER, S-9, AROCLOR 1254 (10%), Method: PREINCUBATION): inactive; negative
mutagenic call [3]: inactive; negative
mutagenic call (Test System: AMES SALMONELLA TYPHIMURIUM, Strain/Indicator: TA100, Metabolic Activation: HAMSTER, LIVER, S-9, AROCLOR 1254 (10%), Method: PREINCUBATION): inactive; negative
mutagenic call [4]: inactive; negative
mutagenic call [5]: inactive; negative
mutagenic call (Test System: AMES SALMONELLA TYPHIMURIUM, Strain/Indicator: TA100, Metabolic Activation: RAT, LIVER, S-9, AROCLOR 1254 (10%), Method: PREINCUBATION): inactive; negative
mutagenic call [6]: inactive; negative
mutagenic call (Test System: AMES SALMONELLA TYPHIMURIUM, Strain/Indicator: TA1535, Metabolic Activation: HAMSTER, LIVER, S-9, AROCLOR 1254 (10%), Method: PREINCUBATION): inactive; negative
mutagenic call (Test System: AMES SALMONELLA TYPHIMURIUM, Strain/Indicator: TA1535, Metabolic Activation: HAMSTER, LIVER, S-9, AROCLOR 1254 (30%), Method: PREINCUBATION): inactive; negative
mutagenic call [7]: inactive; negative
mutagenic call (Test System: AMES SALMONELLA TYPHIMURIUM, Strain/Indicator: TA1535, Metabolic Activation: RAT, LIVER, S-9, AROCLOR 1254 (10%), Method: PREINCUBATION): inactive; negative
mutagenic call (Test System: AMES SALMONELLA TYPHIMURIUM, Strain/Indicator: TA1535, Metabolic Activation: RAT, LIVER, S-9, AROCLOR 1254 (30%), Method: PREINCUBATION): inactive; negative
mutagenic call (Test System: AMES SALMONELLA TYPHIMURIUM, Strain/Indicator: TA1537, Metabolic Activation: HAMSTER, LIVER, S-9, AROCLOR 1254 (30%), Method: PREINCUBATION): inactive; negative
mutagenic call [8]: inactive; negative
mutagenic call (Test System: AMES SALMONELLA TYPHIMURIUM, Strain/Indicator: TA1537, Metabolic Activation: RAT, LIVER, S-9, AROCLOR 1254 (30%), Method: PREINCUBATION): inactive; negative

Clc1cccnc1Cl
mutagenic call [9]: inactive; negative
mutagenic call [10]: active; positive
mutagenic call [11]: inactive; negative
mutagenic call [12]: inactive; negative
mutagenic call [13]: inactive; negative
mutagenic call (Test System: AMES SALMONELLA TYPHIMURIUM, Strain/Indicator: TA102, Metabolic Activation: NONE, Method: STANDARD PLATE): inactive; negative
mutagenic call (Test System: AMES SALMONELLA TYPHIMURIUM, Strain/Indicator: TA102, Metabolic Activation: RAT, LIVER, S-9, AROCLOR 1254, Method: STANDARD PLATE): inactive; negative

CCOC(=O)OC(=O)OCC
mutagenic call [11]: inactive; negative
mutagenic call [13]: inactive; negative

NN(c1ccccc1)c1ccccc1
mutagenic call [9]: inactive; negative
mutagenic call [10]: inactive; negative
mutagenic call [13]: inactive; negative
mutagenic call [14]: inactive; negative

CN(C)CCCN1c2ccccc2CCc2ccccc21
mutagenic call [11]: inactive; negative
mutagenic call [12]: inactive; negative
mutagenic call [13]: inactive; negative
mutagenic call [14]: inactive; negative
mutagenic call (Test System: AMES SALMONELLA TYPHIMURIUM, Strain/Indicator: TA1535, Metabolic Activation: NONE, Method: STANDARD PLATE): inactive; negative
mutagenic call (Test System: AMES SALMONELLA TYPHIMURIUM, Strain/Indicator: TA1535, Metabolic Activation: RAT, LIVER, S-9, AROCLOR 1254, Method: STANDARD PLATE): inactive; negative
mutagenic call (Test System: AMES SALMONELLA TYPHIMURIUM, Strain/Indicator: TA1537, Metabolic Activation: NONE, Method: STANDARD PLATE): inactive; negative
mutagenic call (Test System: AMES SALMONELLA TYPHIMURIUM, Strain/Indicator: TA1537, Metabolic Activation: RAT, LIVER, S-9, AROCLOR 1254, Method: STANDARD PLATE): inactive; negative
